According to US5155127A, “N-(substituted aryl)-N'-(substituted alkoxy)-ureas and thioureas as antihypercholesterolemic and antiatherosclerotic agents” (priority 1990, dated 1992):

What follows are compounds tested against T1, acyl-CoA:cholesterol acyltransferase (ACAT) (Oryctolagus cuniculus, UniProt G1SFD9) (assay: in vitro ACAT inhibition: radio-labeled cholesterol oleate formation from radio-labeled oleic acid in rabbit intestinal microsomes). Settings: read-out: IC50 (concentration of test compound required to inhibit cholesteryl oleate formation to 50% of control).
T1 construct: tissue preparation containing rabbit intestinal microsomes; from tissue; host or cells: rabbit intestinal microsomes
T1 sequence (G1SFD9 1-524): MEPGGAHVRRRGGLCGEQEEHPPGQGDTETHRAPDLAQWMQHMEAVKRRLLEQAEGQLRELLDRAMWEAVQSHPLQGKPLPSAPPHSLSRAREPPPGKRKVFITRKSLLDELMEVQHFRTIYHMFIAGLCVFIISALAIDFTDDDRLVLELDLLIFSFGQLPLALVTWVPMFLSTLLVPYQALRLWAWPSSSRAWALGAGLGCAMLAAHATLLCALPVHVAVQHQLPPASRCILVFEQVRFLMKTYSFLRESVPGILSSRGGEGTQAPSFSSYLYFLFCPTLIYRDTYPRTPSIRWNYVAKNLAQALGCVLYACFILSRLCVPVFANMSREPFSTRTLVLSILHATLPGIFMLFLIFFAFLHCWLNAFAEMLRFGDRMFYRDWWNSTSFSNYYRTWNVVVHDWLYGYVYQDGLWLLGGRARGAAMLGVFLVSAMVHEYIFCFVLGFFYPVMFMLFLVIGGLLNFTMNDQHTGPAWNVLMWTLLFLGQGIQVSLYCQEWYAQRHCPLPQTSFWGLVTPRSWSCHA
Format: biochemical
Protocol: The ability of representative compounds of the present invention to inhibit ACAT was measured using an in vitro test more fully described in Field, F. J. and Salome, R. G., Biochimica et Biophysica Acta, volume 712, pages 557-570 (1982). The test assesses the ability of a test compound to inhibit the acylation of cholesterol by oleic acid by measuring the amount of radio-labeled cholesterol oleate formed from radio-labeled oleic acid in a tissue preparation containing rabbit intestinal microsomes. The data in Table I is expressed as IC50 values, i.e., the concentration of test compound required to inhibit cholesteryl oleate formation to 50% of control.

Going from `CC(C)c1cccc(C(C)C)c1NC(=O)NOCc1cccc2ccccc12` [Example 3, N-[2,6-Bis(1-methylethyl)phenyl]-N'-(1-naphthalenylmethoxy)-urea] to `CC(C)c1cccc(C(C)C)c1NC(=O)NOC(c1ccccc1)c1ccccc1` [Example 1, N-[2,6-Bis(1-methylethyl)phenyl]-N'-(diphenylmethoxy)-urea], the IC50 falls from 92 nM to 30 nM (3.1-fold). The second is the more potent here.

`CC(C)c1cccc(C(C)C)c1NC(=O)NOC(c1ccccc1)(c1ccccc1)c1ccccc1` [Example 2, N-[2,6-Bis(1-methylethyl)phenyl]-N'-(triphenylmethoxy)urea] showed an IC50 of 53 nM.
